Laboratory results reported in patent US20200085789A1, “USE OF A PROTEASOME INHIBITOR FOR THE TREATMENT OF CENTRAL NERVOUS SYSTEM (CNS) CANCERS” (Celgene International II Sàrl, priority 2017, published 2020).

Assays:
[1] = test system: WHO Grade IV malignant glioma; test: Progression free survival (PFS) and overall survival (OS), MRZ ± BEV in recurrent grade IV malignant glioma patients; assay type: in vivo, human
Experimental: Tumor response was measured every other cycle by RANO criteria.
The drugs were infused on 28-Day Cycles. Tumor response is assessed every other cycle by RANO criteria.
Tumor response, including PD activity, progression-free survival (PFS), and overall survival (OS) will be assessed. Tumor response will be assessed by the Investigators using RANO 2010 criteria. […] Endpoints of response based on tumor assessments will be calculated for subjects who received at least 3 doses of MRZ and had at least 1 post-dose tumor evaluation.
Tumor response including PD, progression-free survival (PFS), and overall survival (OS) will be assessed by the Investigators using RANO 2010 criteria.

[2] = Marizomib blood pharmacokinetics (Part 1 Phase 1); conditions: for AUC(0-t) / Cmax / Tmax / Vd / half-life: human, whole blood, intravenous
Experimental: Blood samples will be taken for peak and trough measurements, pre-dose and immediately prior to (end of infusion) EOI, on Cycle 1 Day 1. On Cycle 1 Day 15 full PK sampling will be done: pre-dose, immediately prior to EOI and then 2, 5, 15, 30, 45, 60, 90 and 120 minutes post infusion. The following PK parameters will be estimated by non-compartmental analysis:
Non-compartmental analyses will be performed. […] Blood concentrations and computed PK parameters for MRZ will be listed and summarized by cohort (mean, geometric mean, standard deviation, coefficient of variation, minimum, maximum and number of observations).
Blood should be drawn from the contralateral arm to the infusion site and using an indwelling catheter to avoid multiple needle sticks is recommended. Sample collection time should be recorded on the tube label and Case Report Form (CRF) as day: hour: minute. Nominal time of blood collection are given as “time points”; it is critical that an accurately collected actual time of the sample is written on the CRF and on the blood tubes (date entered as dd:mm:yyyy; time entered using a 24-hour clock, hh:mm). For MRZ samples will be obtained before treatment and just prior to end of infusion on Cycle 1 Day 1. On Cycle 1 Day 15, MRZ blood samples will be obtained before treatment, just prior to end of infusion, and 2, 5, 15, 30, 45, 60, 90, and 120 minutes after the infusion. Every effort should be made to collect samples at the prescribed times, but deviations up to 10% of the time point are allowed. Additional samples may be collected if the subject experiences a potentially drug-related SAE. After blood collection, neutralizing solution must be added. Use Sponsor-provided PK kits. Process, store and ship samples per instructions in Study Reference Manual.
Non-compartmental analyses will be performed.

[3] = test system: human glioblastoma (GBM) cell lines; conditions: either of two GBM lines; cited from earlier work

With C[C@@]12OC(=O)[C@]1([C@@H](O)[C@@H]1C=CCCC1)NC(=O)[C@@H]2CCCl [MRZ, marizomib] the “PFS Median” value ([1]; All Patients) was 1.8, the “6 mo Overall Survival” value ([1]; All Pts) was 64% and the “9 mo Overall Survival” value ([1]; All Pts) was 64%. The “6 mo Overall Survival” value ([1]; Methylated MGMT Promoter) was 83%, the “9 mo Overall Survival” value ([1]; Methylated MGMT Promoter) was 83% and the “PFS Median” value ([1]; Methylated MGMT Promoter) was 1.7. The “OS 6 mo” value ([1]; Monotherapy, Methylated (7)) was 83%, the “OS 9 mo” value ([1]; Monotherapy, Methylated (7)) was 83% and the “OS Median” value ([1]; Monotherapy, Methylated (7)) was “Undefined”. For the same compound, the “PFS 3 mo” value ([1]; Monotherapy, Methylated (7)) was 40%, the “PFS Median” value ([1]; Monotherapy, Methylated (7)) was 1.7 months and the “OS 6 mo” value ([1]; Monotherapy, Unmethylated (18)) was 65%. For the same compound, the “OS 9 mo” value ([1]; Monotherapy, Unmethylated (18)) was 65%, the “OS Median” value ([1]; Monotherapy, Unmethylated (18)) was “Undefined” and the “PFS 3 mo” value ([1]; Monotherapy, Unmethylated (18)) was 20%. The “PFS Median” value ([1]; Monotherapy, Unmethylated (18)) was 1.9 months, the median overall survival ([1]; Part II monotherapy, 16 events, median follow-up 9.2 months) was 11.4 months and the “OS 6 mo %” value ([1]; Part II, N = 30, 14 censored) was 59%. For the same compound, the “OS 9 mo %” value ([1]; Part II, N = 30, 14 censored) was 54%, the “OS 12 mo %” value ([1]; Part II, N = 30, 14 censored) was 17% and the “6 mo Overall Survival” value ([1]; Unmethylated MGMT Promoter) was 65%. For the same compound, the “9 mo Overall Survival” value ([1]; Unmethylated MGMT Promoter) was 65%, the “PFS Median” value ([1]; Unmethylated MGMT Promoter) was 1.9 and the CLobs ([2]; MRZ 0.7 mg/m^2, C1D8) was 272 ± 166 (3) L/hr. The CLobs ([2]; MRZ 0.8 mg/m^2, C1D8) was 304 ± 85.0 (3) L/hr, the pharmacokinetic parameters ([2]; co-administration with bevacizumab) was “consistent with published parameters and not affected by co-administration” and the AUC(0-t) ([2]; 0.7 mg/m2) was 3.22 ng·h/mL. For the same compound, the Cmax ([2]; 0.7 mg/m2) was 64.9 ± 1.73 ng/mL, the Tmax ([2]; 0.7 mg/m2) was 21.3 min and the Vd ([2]; 0.7 mg/m2) was 48.3 ± 16.1 L. The half-life ([2]; 0.7 mg/m2) was 16 ± 8.08 min, the AUC(0-t) ([2]; 0.8 mg/m2) was 6.53 ng·h/mL and the Cmax ([2]; 0.8 mg/m2) was 26.5 ± 7.92 ng/mL. For the same compound, the Tmax ([2]; 0.8 mg/m2) was 8 min, the Vd ([2]; 0.8 mg/m2) was 55 ± 19.7 L and the half-life ([2]; 0.8 mg/m2) was 7.27 ± 0.423 min. For the same compound, the Tmax ([2]; […]2) was 15.5 min, the Vd ([2]; […]2) was 54.4 ± 10.6 L and the half-life ([2]; […]2) was 8.2 ± 0.8 min. For the same compound, the “decrease of matrix invasion” value [3] was “approximately 90%”.
